According to patent US11807644B2 (PMV Pharmaceuticals, Inc., priority 2020, dated 2023):

These compounds were tested against T1, recombinant His-tag Y220C p53 DBD protein (Homo sapiens, UniProt P04637, Y220C) (assay: In vitro DNA binding activity assay (TR-FRET): binding of His-tag Y220C p53 DBD to biotin-labeled consensus DNA). Conditions: SC150 = concentration to increase DNA binding by […], His-tag Y220C p53 DBD, biotin-labeled consensus DNA.
T1 construct: recombinant His-tag Y220C p53 DBD protein (amino acids #˜94-312)
Type: biochemical
Method: DNA binding activity of the compounds was measured using a TR-FRET (Time-Resolved Fluorescence Resonance Energy Transfer) assay in which recombinant His-tag Y220C p53 DBD protein binds to biotin-labeled consensus DNA. Binding of recombinant His-tag Y220C p53 DBD protein and biotin-labeled consensus DNA was registered by the FRET (fluorescence resonance energy transfer) between allophycocyanin (APC) conjugated anti-His tag antibody and Europium-(Eu) conjugated Streptavidin.
The compounds of TABLES 1-9 (2 mM stock in dimethylsulfoxide) were diluted 3-fold in series in dimethylsulfoxide. 1.2 μL of a compound solution was added to each well of 384-well polypropylene black plates (NUNC). Thirty μL per well of 181 nM recombinant His-tag Y220C p53 DBD protein (amino acids #˜94-312; SEQ ID NO: 1) and 6.1 nM of APC conjugated anti-His tag antibody (Columbia Biosciences) in ice-cold Assay Buffer 1 (50 mM Tris-HCl, pH 7.4, 75 mM KCl, 0.75 mM DTT and 0.2 mg/ml, BSA) were added. As a background control. 30 μL of Assay Buffer 1 containing 6.1 nM of APC anti-His antibody (No Y220C protein) was also added into a second set of serially diluted compound plates. The samples were spun by centrifuge at 1,200 rpm (Eppendorf 5810R Plate centrifuge) for 1 minute and incubated at room temperature (20° C.) for 15 min. The samples were then further incubated at either 27° C. or 29° C. for 60 min. […] The samples were spun by centrifuge at 1,200 rpm for 1 min and incubated at room temperature (20° C.) for 20 min. Assay signals were monitored by reading excitation at 340 nm, and emission fluorescence at 615 nm and 665 nm on an Envision® reader. Normalized TR-FRET (time-resolved fluorescence resonance energy transfer) assay signal (Rn) was calculated by the formula: Rn=[(A−Ba−C×(D−Bd))/(D−Bd)]×(D−Bd) Wherein: • A is the fluorescence intensity of the sample at 665 nm; • D is the fluorescence intensity of the sample at 615 nm; • Ba and Bd are plate backgrounds at 665 nm and 615 nm, respectively; and • Dc is the fluorescence intensity of 0.67 nM Eu-SA in the assay buffer at 615 nm.
The cross-talk factor (C) was determined by the following formula: C=(Ac−Ba)/(Dc−Bd) wherein Ac is the fluorescence intensity of 0.67 nM Europium (Eu) conjugated Streptavidin in the assay buffer at 665 nm.

| Compound | Y220C SC150 (μM) |
| --- | --- |
| CN1CCC(Nc2cccc3c2cc(-c2nnc(CNC(=O)[C@H]4C[C@@H]4c4ccccc4)s2)n3CC(F)(F)F)CC1 (racemic) [Compound 53B, (+/−)-(1S,2S)-N-[(5-{4-[(1-methylpiperidin-4-yl)amino]-1-(2,2,2-trifluoroethyl)-1H-indol-2-yl}-1,3,4-thiadiazol-2-yl)methyl]-2-phenylcyclopropane-1-carboxamide] | * (* = 0 μM ≤ SC150 < 0.1 μM) |
| COC(=O)[C@@H]1C[C@H]1C(=O)NCc1nnc(-c2cc3c(NC4CCN(C)CC4)cccc3n2CC(F)(F)F)s1 (racemic) [Compound 75B, (+/−)-methyl (1R,2R)-2-{[(5-{4-[(1-methylpiperidin-4-yl)amino]-1-(2,2,2-trifluoroethyl)-1H-indol-2-yl}-1,3,4-thiadiazol-2-yl)methyl]carbamoyl}cyclopropane-1-carboxylate] | * (* = 0 μM ≤ SC150 < 0.1 μM) |
| CN1CCC(Nc2cccc3c2cc(-c2nnc(CNC(=O)[C@@H]4C[C@H]4C(=O)O)s2)n3CC(F)(F)F)CC1 (racemic) [Compound 76B, (+/−)-(1R,2R)-2-{[(5-{4-[(1-methylpiperidin-4-yl)amino]-1-(2,2,2-trifluoroethyl)-1H-indol-2-yl}-1,3,4-thiadiazol-2-yl)methyl]carbamoyl}cyclopropane-1-carboxylic acid] | * (* = 0 μM ≤ SC150 < 0.1 μM) |
| CN1CCC(Nc2cccc3c2cc(-c2nnc(CNC(=O)[C@@H]4C[C@@H]4C(=O)O)s2)n3CC(F)(F)F)CC1 (racemic) [Compound 81B, (+/−)-(1R,2S)-2-{[(5-{4-[(1-methylpiperidin-4-yl)amino]-1-(2,2,2-trifluoroethyl)-1H-indol-2-yl}-1,3,4-thiadiazol-2-yl)methyl]carbamoyl}cyclopropane-1-carboxylic acid] | ** (** = 0.1 μM ≤ SC150 < 0.5 μM) |
| CN1CC[C@@H](Nc2cccc3c2cc(-c2nc(CNC(=O)C4CC4)cs2)n3CC(F)(F)F)[C@@H](F)C1 (racemic) [Compound 89B, N-{[2-(4-{[(3S,4R)-3-fluoro-1-methylpiperidin-4-yl]amino}-1-(2,2,2-trifluoroethyl)-1H-indol-2-yl)-1,3-thiazol-4-yl]methyl}cyclopropanecarboxamide] | **** (**** = 1 μM ≤ SC150 < 10 μM) |
| CN1CC[C@@H](Nc2cccc3c2cc(-c2nc(CNC(=O)c4ccccc4)cs2)n3CC(F)(F)F)[C@@H](F)C1 (racemic) [Compound 90B, N-{[2-(4-{[(3S,4R)-3-fluoro-1-methylpiperidin-4-yl]amino}-1-(2,2,2-trifluoroethyl)-1H-indol-2-yl)-1,3-thiazol-4-yl]methyl}benzamide] | **** (**** = 1 μM ≤ SC150 < 10 μM) |
| CN1CC[C@@H](Nc2cccc3c2cc(-c2ncc(CNC(=O)c4ccccc4)s2)n3CC(F)(F)F)[C@@H](F)C1 (racemic) [Compound 91B, (+/−)-N-{[2-(4-{[(3R,4S)-3-fluoro-1-methylpiperidin-4-yl]amino}-1-(2,2,2-trifluoroethyl)-1H-indol-2-yl)-1,3-thiazol-5-yl]methyl}benzamide] | * (* = 0 μM ≤ SC150 < 0.1 μM) |
| CN1CC[C@@H](Nc2cccc3c2cc(-c2nccs2)n3CC(F)(F)F)[C@@H](F)C1 (racemic) [Compound 93B, (+/−)-N-[(3R,4S)-3-fluoro-1-methylpiperidin-4-yl]-2-(1,3-thiazol-2-yl)-1-(2,2,2-trifluoroethyl)-1H-indol-4-amine] | *** (*** = 0.5 μM ≤ SC150 < 1 μM) |
| CN1CC[C@@H](Nc2cccc3c2cc(-c2ncc(CNC(=O)C4CC4)s2)n3CC(F)(F)F)[C@@H](F)C1 (racemic) [Compound 95B, (+/−)-N-{[2-(4-{[(3R,4S)-3-fluoro-1-methylpiperidin-4-yl]amino}-1-(2,2,2-trifluoroethyl)-1H-indol-2-yl)-1,3-thiazol-5-yl]methyl}cyclopropanecarboxamide] | * (* = 0 μM ≤ SC150 < 0.1 μM) |
| CN1CC[C@@H](Nc2cccc3c2cc(-c2ncc(CN)s2)n3CC(F)(F)F)[C@@H](F)C1 (racemic) [Compound 96B, (+/−)-2-[5-(aminomethyl)-1,3-thiazol-2-yl]-N-[(3R,4S)-3-fluoro-1-methylpiperidin-4-yl]-1-(2,2,2-trifluoroethyl)-1H-indol-4-amine] | **** (**** = 1 μM ≤ SC150 < 10 μM) |
| CN1CC[C@@H](Nc2cccc3c2cc(-c2ncc(CNc4ccccc4)s2)n3CC(F)(F)F)[C@@H](F)C1 (racemic) [Compound 98B, (+/−)-N-[(3R,4S)-3-fluoro-1-methylpiperidin-4-yl]-2-{5-[(phenylamino)methyl]-1,3-thiazol-2-yl}-1-(2,2,2-trifluoroethyl)-1H-indol-4-amine] | * (* = 0 μM ≤ SC150 < 0.1 μM) |
| COc1cc(S(C)(=O)=O)ccc1NCc1ccc(-c2cc3c(N[C@H]4CCN(C)C[C@H]4F)cccc3n2CC(F)(F)F)s1 (racemic) [Compound 101B, (+/−)-N-[(3R,4S)-3-fluoro-1-methylpiperidin-4-yl]-2-(5-{[(4-methanesulfonyl-2-methoxyphenyl)amino]methyl}thiophen-2-yl)-1-(2,2,2-trifluoroethyl)-1H-indol-4-amine] | * (* = 0 μM ≤ SC150 < 0.1 μM) |
| CN1CC[C@H](Nc2cccc3c2cc(-c2ccc(CNC(=O)c4ccccc4)s2)n3CC(F)(F)F)[C@H](F)C1 (racemic) [Compound 102B, (+/−)-N-{[5-(4-{[(3R,4S)-3-fluoro-1-methylpiperidin-4-yl]amino}-1-(2,2,2-trifluoroethyl)-1H-indol-2-yl)thiophen-2-yl]methyl}benzamide] | ** (** = 0.1 μM ≤ SC150 < 0.5 μM) |
| CN1CC[C@@H](Nc2cccc3c2cc(-c2ccc(CNC(=O)C4CC4)s2)n3CC(F)(F)F)[C@@H](F)C1 (racemic) [Compound 103B, (+/−)-N-{[5-(4-{[(3R,4S)-3-fluoro-1-methylpiperidin-4-yl]amino}-1-(2,2,2-trifluoroethyl)-1H-indol-2-yl)thiophen-2-yl]methyl}cyclopropanecarboxamide] | * (* = 0 μM ≤ SC150 < 0.1 μM) |
| COc1cc(S(C)(=O)=O)ccc1NCc1nnc(-c2cc3c(N[C@H]4CCN(C)C[C@H]4F)cccc3n2CC(F)(F)F)o1 (racemic) [Compound 114B, (+/−)-N-[(3R,4S)-3-fluoro-1-methylpiperidin-4-yl]-2-(5-{[(4-methanesulfonyl-2-methoxyphenyl)amino]methyl}-1,3,4-oxadiazol-2-yl)-1-(2,2,2-trifluoroethyl)-1H-indol-4-amine] | ** (** = 0.1 μM ≤ SC150 < 0.5 μM) |
| COc1ccccc1C(=O)NCc1nnc(-c2cc3c(N[C@H]4CCN(C)C[C@H]4F)cccc3n2CC(F)(F)F)o1 (racemic) [Compound 115B, (+/−)-N-{[5-(4-{[(3R,4S)-3-fluoro-1-methylpiperidin-4-yl]amino}-1-(2,2,2-trifluoroethyl)-1H-indol-2-yl)-1,3,4-oxadiazol-2-yl]methyl}-2-methoxybenzamide] | ** (** = 0.1 μM ≤ SC150 < 0.5 μM) |
| CN1CC[C@H](Nc2cccc3c2cc(-c2nnc(CN)o2)n3CC(F)(F)F)[C@H](F)C1 (racemic) [Compound 116B, (+/−)-2-[5-(aminomethyl)-1,3,4-oxadiazol-2-yl]-N-[(3R,4S)-3-fluoro-1-methylpiperidin-4-yl]-1-(2,2,2-trifluoroethyl)-1H-indol-4-amine] | *** (*** = 0.5 μM ≤ SC150 < 1 μM) |
| COc1ccc(C(=O)NCc2nnc(-c3cc4c(N[C@H]5CCN(C)C[C@H]5F)cccc4n3CC(F)(F)F)o2)cc1 (racemic) [Compound 117B, (+/−)-N-{[5-(4-{[(3R,4S)-3-fluoro-1-methylpiperidin-4-yl]amino}-1-(2,2,2-trifluoroethyl)-1H-indol-2-yl)-1,3,4-oxadiazol-2-yl]methyl}-4-methoxybenzamide] | ** (** = 0.1 μM ≤ SC150 < 0.5 μM) |

Same assay, conditions: concentration to increase DNA binding by […], incubated at either 27° C. or 29° C. for 60 min

| Compound | SC150 (μM) |
| --- | --- |
| CN1CC[C@H](Nc2cccc3c2cc(-c2ccc(CNC(=O)C4CC4)cc2)n3CC(F)(F)F)[C@H](F)C1 (racemic) [Compound 46A, (+/−)-N-{[4-(4-{[(3R,4S)-3-fluoro-1-methylpiperidin-4-yl]amino}-1-(2,2,2-trifluoroethyl)-1H-indol-2-yl)phenyl]methyl}cyclopropanecarboxamide] | + (+ = 0 μM ≤ SC150 < 2 μM) |
